According to ChEMBL document CHEMBL4364263, “Synthesis and biological evaluation of 2,4,5-trisubstituted thiazoles as antituberculosis agents effective against drug-resistant tuberculosis” (Eur J Med Chem, 2019):
≈ marks a conversion by molar mass, not a printed value. Calls of active or inactive are those of the source. The rule behind the calls is not given here.

Columns and labels:
[1] = system: Mycobacterium tuberculosis; assay: Antimycobacterial activity against dormant stage of Mycobacterium tuberculosis H37Ra ATCC 25177 assessed as growth inhibition at 10 uM incubated for 12 days by XRMA method relative to control; format: functional; settings: H37Ra ATCC 25177, 288 h
[2] = system: Mycobacterium tuberculosis; assay: Antitubercular activity against replicating Mycobacterium tuberculosis H37Rv assessed as growth inhibition measured after 7 days incubation by microplate alamar blue assay; format: functional; settings: 168 h
Pseudomonas aeruginosa = assay: Antibacterial activity against Pseudomonas aeruginosa ATCC 27853 assessed as growth inhibition incubated for 18 to 24 hrs by broth microdilution based antibiotic susceptibility testing method; format: functional
Escherichia coli = assay: Antibacterial activity against Escherichia coli ATCC 25922 assessed as growth inhibition incubated for 18 to 24 hrs by broth microdilution based antibiotic susceptibility testing method; format: functional
[3] = Selectivity index, ratio of IC50 for CHOK1 cells to MIC for Mycobacterium tuberculosis H37Rv; format: toxicity; settings: hamster, CHO-K1 cells; read-out: Selectivity Index
CHO-K1 [4] = assay: Cytotoxicity against CHOK1 cells assessed as reduction in cell viability incubated for 24 hrs by MTT assay; format: cell-based; settings: Cricetulus griseus, CHO-K1, 24 h
MCF7 = assay: Cytotoxicity against human MCF7 cells assessed as cell viability at 10 uM incubated for 24 hrs by MTT assay; format: cell-based; settings: mcf7, 24 h
B16-F10 = assay: Cytotoxicity against mouse B16F10 cells assessed as cell viability at 10 uM incubated for 24 hrs by MTT assay; format: cell-based; settings: b16-f10, 24 h
[5] = system: Mycolicibacterium fortuitum; assay: Antimycobacterial activity against Mycobacterium fortuitum assessed as growth inhibition; format: functional, organism-based
[6] = system: Mycobacteroides abscessus; assay: Antimycobacterial activity against Mycobacterium abscessus assessed as growth inhibition; format: functional, organism-based
Klebsiella pneumoniae = assay: Antibacterial activity against Klebsiella pneumoniae BAA-1705 assessed as growth inhibition incubated for 18 to 24 hrs by broth microdilution based antibiotic susceptibility testing method; format: functional; settings: ATCC BAA-1705
Mycobacteroides chelonae = assay: Antimycobacterial activity against Mycobacterium chelonae assessed as growth inhibition; format: functional, organism-based
Staphylococcus aureus = assay: Antibacterial activity against Staphylococcus aureus ATCC 29213 assessed as growth inhibition incubated for 18 to 24 hrs by broth microdilution based antibiotic susceptibility testing method; format: functional
[7] = system: Mycobacterium tuberculosis; assay: Antitubercular activity against Mycobacterium tuberculosis H37Rv ATCC 27294 assessed as bacterial growth inhibition incubated for 5 days by standard microdilution method; format: functional; settings: H37Rv ATCC 27294, 120 h
CHO-K1 [8] = assay: Cytotoxicity against CHOK1 cells assessed as cell viability at 8 ug/ml incubated for 24 hrs by MTT assay; format: cell-based, Cricetulus griseus; settings: chinese hamster, cho-k1, 24 h
Acinetobacter baumannii = assay: Antibacterial activity against Acinetobacter baumannii BAA-1605 assessed as growth inhibition incubated for 18 to 24 hrs by broth microdilution based antibiotic susceptibility testing method; format: functional

| Structure (SMILES) | inhibition at 10 µM [1] [%] | MIC [2] [µg/mL] | further results |
| --- | --- | --- | --- |
| C[C@@H](NC(=O)c1nc(C2CCCCC2)sc1-c1ccc(C#N)cc1)c1ccccc1 | 57.8 | 10.3 (≈ 24.8 µM) | – |
| CCOC(=O)c1nc(C(C)C)sc1-c1ccc(C#N)cc1 | 82.7 | 1.8 (≈ 5.99 µM) | MIC (Pseudomonas aeruginosa): > 50 µM; MIC (Escherichia coli): > 50 µM; selectivity ratio [3]: 22.4; IC50 (CHO-K1 [4]): 40.5 µg/mL (≈ 135 µM); Activity (MCF7): Non-Toxic; Activity (B16-F10): Non-Toxic; inhibition [5]: inactive; inhibition [6]: inactive; MIC (Klebsiella pneumoniae): > 50 µM; inhibition (Mycobacteroides chelonae): inactive; MIC (Staphylococcus aureus): > 50 µM |
| Cc1nc(C(=O)N[C@@H](C)c2ccccc2)c(-c2ccc(C#N)cc2)s1 | 73.5 | > 34 | – |
| CC(C)c1nc(C(=O)NCc2ccccc2)c(-c2ccc(C#N)cc2)s1 | – | > 34 | – |
| CO[C@H]1/C=C/O[C@@]2(C)Oc3c(C)c(O)c4c(O)c(c(/C=N/N5CCN(C)CC5)c(O)c4c3C2=O)NC(=O)/C(C)=C\C=C\[C@H](C)[C@H](O)[C@@H](C)[C@@H](O)[C@@H](C)[C@H](OC(C)=O)[C@@H]1C [RIFAMPIN] | – | 0.2 (≈ 0.243 µM) | – |
| CCOC(=O)c1nc(C(C)C)sc1-c1ccc2c(c1)OCO2 | 90.1 | 7.9 (≈ 24.7 µM) | – |
| CC(C)c1nc(C(=O)NCc2ccc(Cl)cc2)c(-c2ccc(C#N)cc2)s1 | – | > 34 | – |
| CC(C)c1nc(C(=O)NCc2ccc(F)cc2)c(-c2ccc(C#N)cc2)s1 | – | > 34 | – |
| Cc1nc(C(=O)N2CCOCC2)c(-c2ccc(C#N)cc2)s1 | – | > 34 | – |
| CCOC(=O)c1nc(C2CCCCC2)sc1-c1cnc2ccccc2c1 | 86.5 | 4.5 (≈ 12.3 µM) | – |
| CC(C)c1nc(C(=O)NCc2ccc3c(c2)OCO3)c(-c2ccc3c(c2)OCO3)s1 | 82.2 | 10.6 (≈ 25 µM) | – |
| COc1ccc(CCNC(=O)c2nc(C(C)C)sc2-c2ccc3c(c2)OCO3)cc1OC | 84.9 | 5.6 (≈ 12.3 µM) | – |
| COc1ccc(CCNC(=O)c2nc(C3CCCCC3)sc2-c2ccc(C#N)cc2)cc1OC | 71.6 | 5.9 (≈ 12.4 µM) | – |
| COc1ncnc(Cn2cc(C(=O)NCCO)c3ncc(C)cc32)c1C [TBA-7371] | – | – | MIC [7]: 0.78 to 3.12 µM (≈ 0.277 to 1.11 µg/mL) |
| CCOC(=O)c1nc(C2CCCCC2)sc1-c1cccc(C#N)c1 | 90.3 | 4.2 (≈ 12.3 µM) | MIC (Pseudomonas aeruginosa): > 50 µM; MIC (Escherichia coli): > 50 µM; selectivity ratio [3]: > 11.9; IC50 (CHO-K1 [4]): > 50 µg/mL; Activity (MCF7): Non-Toxic; Activity (B16-F10): Non-Toxic; inhibition [5]: inactive; inhibition [6]: inactive; MIC (Klebsiella pneumoniae): > 50 µM; inhibition (Mycobacteroides chelonae): inactive; MIC (Staphylococcus aureus): 50 µM (≈ 17 µg/mL) |
| CC(C)c1nc(C(=O)N[C@H](C)c2ccccc2)c(-c2ccc(C#N)cc2)s1 | 86.7 | 9.3 (≈ 24.8 µM) | – |
| CCOC(=O)c1nc(C2CCCCC2)sc1-c1ccc2c(c1)OCO2 | 92 | 8.9 (≈ 24.8 µM) | – |
| Cc1ccc(C(C)NC(=O)c2nc(C(C)C)sc2-c2ccc(C#N)cc2)cc1 (stereo unspecified) | – | > 34 | – |
| CC(C)c1nc(C(=O)NCc2ccc3c(c2)OCO3)c(-c2ccc(C#N)cc2)s1 | – | > 34 | – |
| CC(C)c1nc(C(=O)N[C@@H](C)c2ccccc2)c(-c2ccc(C#N)cc2)s1 | 73.2 | 18.7 (≈ 49.8 µM) | – |
| Cc1nc(C(=O)NCc2ccc3c(c2)OCO3)c(-c2ccc(C#N)cc2)s1 | – | > 34 | – |
| CC(C)c1nc(C(=O)NCc2ccc(Cl)c(F)c2)c(-c2ccc(C#N)cc2)s1 | – | > 34 | – |
| N#Cc1ccc(-c2sc(C3CCCCC3)nc2C(=O)N2CCOCC2)cc1 | – | > 34 | – |
| CCOC(=O)c1nc(C2CCCCC2)sc1-c1ccc(C#N)cc1 | 90.5 | 2.1 (≈ 6.17 µM) | MIC (Pseudomonas aeruginosa): > 50 µM; MIC (Escherichia coli): > 50 µM; selectivity ratio [3]: 35.8; IC50 (CHO-K1 [4]): 75.2 µg/mL (≈ 221 µM); Activity (MCF7): Non-Toxic; Activity (CHO-K1 [8]): Non-Toxic; Activity (B16-F10): Non-Toxic; inhibition [5]: inactive; inhibition [6]: inactive; MIC (Klebsiella pneumoniae): > 50 µM; inhibition (Mycobacteroides chelonae): inactive; MIC (Staphylococcus aureus): 50 µM (≈ 17 µg/mL) |
| CCOC(=O)c1nc(C(C)C)sc1-c1cccc2cnccc12 | – | 16.3 (≈ 49.9 µM) | – |
| CCOC(=O)c1nc(C(C)C)sc1-c1ccccc1C#N | – | 15 (≈ 49.9 µM) | – |
| CC(C)c1nc(C(=O)N[C@H](C)c2cccc3ccccc23)c(-c2ccc(C#N)cc2)s1 | – | > 34 | – |

| Structure (SMILES) | inhibition at 10 µM [1] [%] | MIC [2] [µg/mL] | further results |
| --- | --- | --- | --- |
| CC(C)c1nc(C(=O)NCc2cc(Cl)cc(Cl)c2)c(-c2ccc(C#N)cc2)s1 | – | > 34 | – |
| CCOC(=O)c1nc(C2CCCCC2)sc1-c1ccccc1C#N | 91.7 | 4.2 (≈ 12.3 µM) | MIC (Pseudomonas aeruginosa): > 50 µM; MIC (Escherichia coli): > 50 µM; selectivity ratio [3]: > 11.9; IC50 (CHO-K1 [4]): > 50 µg/mL; Activity (MCF7): Non-Toxic; Activity (B16-F10): Non-Toxic; inhibition [5]: inactive; inhibition [6]: inactive; MIC (Klebsiella pneumoniae): > 50 µM; inhibition (Mycobacteroides chelonae): inactive; MIC (Staphylococcus aureus): 50 µM (≈ 17 µg/mL) |
| C[C@H]1COc2c(N3CCN(C)CC3)c(F)cc3c(=O)c(C(=O)O)cn1c23 [LEVOFLOXACIN] | – | – | MIC (Escherichia coli): < 30 µM; MIC (Acinetobacter baumannii): 8 µM (≈ 2.89 µg/mL) |
| CC(C)c1nc(C(=O)NCc2cccnc2)c(-c2ccc3c(c2)OCO3)s1 | 87.1 | 9.5 (≈ 24.9 µM) | – |
| N#Cc1ccc(-c2sc(C3CCCCC3)nc2C(=O)NCc2ccc3c(c2)OCO3)cc1 | – | > 34 | – |
| Cc1nc(C(=O)NCc2cccnc2)c(-c2ccc(C#N)cc2)s1 | – | > 34 | – |
| N#Cc1ccc(-c2sc(C3CCCCC3)nc2C(=O)NCc2cccnc2)cc1 | – | > 34 | – |
| CC(C)c1nc(C(=O)N[C@H](C)c2ccccc2)c(-c2ccc3c(c2)OCO3)s1 | 90.9 | 4.9 (≈ 12.4 µM) | – |
| CCOC(=O)c1nc(C)sc1-c1ccc(C#N)cc1 | 20.2 | 14.5 (≈ 53.2 µM) | – |
| Cc1nc(C(=O)N[C@H](C)c2ccccc2)c(-c2ccc(C#N)cc2)s1 | 74 | > 34 | – |
| COc1ccc(CCNC(=O)c2nc(C(C)C)sc2-c2ccc(C#N)cc2)cc1OC | 89.4 | 5.4 (≈ 12.4 µM) | – |
| CCOC(=O)c1nc(C(C)C)sc1-c1cccc(C#N)c1 | – | 15 to 17 (≈ 49.9 to 56.6 µM) | – |
| CCOC(=O)c1nc(C2CCCCC2)sc1-c1ccc2nccnc2c1 | 93.3 | 4.5 (≈ 12.2 µM) | – |
| CCOC(=O)c1nc(C2CCCCC2)sc1-c1ccc2c(c1)NC(=O)CO2 | – | 19.3 (≈ 49.9 µM) | – |
| CCOC(=O)c1nc(C(C)C)sc1-c1ccc2c(c1)NC(=O)CO2 | – | > 34 | – |
| CCOC(=O)c1nc(C(C)C)sc1-c1ccc2nccnc2c1 | 19.5 | 8.1 (≈ 24.7 µM) | – |
| CC(C)c1nc(C(=O)N2CCOCC2)c(-c2ccc3c(c2)OCO3)s1 | – | > 34 | – |
| CC(C)c1nc(C(=O)N[C@@H](C)c2ccccc2)c(-c2ccc3c(c2)OCO3)s1 | 90.8 | 4.9 (≈ 12.4 µM) | – |
| COc1ccc(CCNC(=O)c2nc(C)sc2-c2ccc(C#N)cc2)cc1OC | 67.3 | > 34 | – |
| CC(C)c1nc(C(=O)NCc2cccnc2)c(-c2ccc(C#N)cc2)s1 | – | > 34 | – |
| CC(C)c1nc(C(=O)NC(C)c2ccc(Br)cc2)c(-c2ccc(C#N)cc2)s1 (stereo unspecified) | – | > 34 | – |
| CCOC(=O)c1nc(C2CCCCC2)sc1-c1cccc2cnccc12 | 96 | 4.5 (≈ 12.3 µM) | – |
| CCOC(=O)c1nc(C(C)C)sc1-c1cnc2ccccc2c1 | 80.5 | 4 (≈ 12.3 µM) | MIC (Pseudomonas aeruginosa): > 50 µM; MIC (Escherichia coli): > 50 µM; selectivity ratio [3]: > 12.5; IC50 (CHO-K1 [4]): > 50 µg/mL; Activity (MCF7): Non-Toxic; Activity (B16-F10): Non-Toxic; inhibition [5]: inactive; inhibition [6]: inactive; MIC (Klebsiella pneumoniae): > 50 µM; inhibition (Mycobacteroides chelonae): inactive; MIC (Staphylococcus aureus): > 50 µM |
| CC(C)c1nc(C(=O)N2CCOCC2)c(-c2ccc(C#N)cc2)s1 | – | > 34 | – |
| C[C@H](NC(=O)c1nc(C2CCCCC2)sc1-c1ccc(C#N)cc1)c1ccccc1 | – | 20.7 (≈ 49.8 µM) | – |
| CO[C@@]12[C@H](COC(N)=O)C3=C(C(=O)C(C)=C(N)C3=O)N1C[C@@H]1N[C@@H]12 [MITOMYCIN] | – | – | IC50 (CHO-K1 [4]): 13.1 µg/mL (≈ 39.2 µM) |
| CCOC(=O)c1nc(C)sc1-c1ccc2c(c1)OCO2 | – | 13.6 (≈ 46.7 µM) | – |
